Data as given in EP4653431A1, “PYRAZOLE DERIVATIVE, AND PHARMACEUTICALLY ACCEPTABLE SALT, STEREOISOMER, PHARMACEUTICAL COMPOSITION AND USE THEREOF” (Starg (Wuhan) Pharmaceutical Technology Co., Ltd, priority 2023, dated 2024).
Structures can show the parent of a compound that is named as a salt. Where two headings read alike, the source gives them in different places.

Legend:
CDK2/cyclin E1 = target: T1, CDK2/cyclin E1 (Homo sapiens, UniProt P24941); assay: In vitro CDK2/cyclinE enzyme activity assay (TR-FRET); type: biochemical; conditions: CDK2/cyclin E1, 1 mM ATP, 120 min at 25 °C
T1 construct: purchased SignalChem
Protocol: CDK2/cyclin E1 was purchased from SignalChem. Ulight-4E-BP1 peptide, Eu-anti-phospho-tyrosine antibody, and 1X detection buffer solution were purchased from PerkinElmer. High-purity adenosine triphosphate (ATP) was purchased from Promega. Ethylenediaminetetraacetic acid (EDTA) was purchased from Sigma. Nivo multimode plate reader (PerkinElmer) was used.
Preparation of Kinase Buffer Solution: The kinase buffer solution consisted 50 mM HEPES, 1 mM EDTA, 10 mM MgCl2, and 0.01% Brij-35, with pH of 7.4. 2.38 g HEPES, 58 mg EDTA, 406 mg MgCl2, and 20 mg Brij-35 were added to 200 mL buffer, and the pH was adjusted to 7.4.
(§1) The stop solution was prepared by mixing 100 µL of 1 M EDTA stock solution with […] of 1X detection buffer solution and 1725 µL of distilled water.
The enzyme, Ulight-4E-BP1 peptide, ATP, and the inhibitor were diluted using the kinase buffer solution. The Eu-anti-phospho-tyrosine antibody was diluted to a concentration of 8 nM/L using the detection buffer solution. The test compound was serially diluted 5-fold using a multichannel pipette to the 8th concentration, i.e., from 4 µM to 0.0512 nM. The final concentration of DMSO was 4%, and the experiment was set up with duplicate wells. 2.5 µL of each gradient concentration of the inhibitor, 5 µL of CDK2/cyclin E1 enzyme (10 ng), and 2.5 µL of a mixture of substrate and ATP (4 mM ATP, 100 nM Ulight-4E-BP1 peptide) were added to a microplate, resulting in a final concentration gradient of the compound from 1 µM to 0.0128 nM, with final ATP and substrate concentrations of 1 mM and 25 nM, respectively. The reaction system was incubated at 25 °C for 120 minutes. After the reaction, 5 µL of the stop solution was added to each well, and further reacted at 25 °C for 5 minutes to terminate the reaction. Then 5 µL of Eu-anti-phospho-tyrosine antibody dilution was added to each well, and the mixture was reacted at 25 °C for 60 minutes. Data were collected using the PerkinElmer Nivo multimode plate reader in TR-FRET mode (excitation wavelength: 320 nm; emission wavelengths: 615 nm and 665 nm).
(§2) The raw data were converted to inhibition rates according to the equation (Sample-Min)/(Max-Min)×100%. The IC50 value was obtained by fitting the data to a four-parameter curve (using log(inhibitor) vs. response -- Variable slope model in GraphPad Prism).

CDK1/cyclin B1 = target: T2, CDK1/cyclin B1 (Homo sapiens, UniProt P06493); assay: In vitro CDK1/cyclin B1 enzyme activity assay (TR-FRET); type: biochemical
T2 construct: purchased Carna Biosciences
Protocol: CDK1/cyclin B1 was purchased from Carna Biosciences. Ulight-4E-BP1 peptide, Eu-anti-phospho-tyrosine antibody, and 1X detection buffer were purchased from PerkinElmer. High-purity ATP was purchased from Promega. EDTA was purchased from Sigma. Nivo multimode plate reader (PerkinElmer) was used.
Preparation of Kinase Buffer Solution: The kinase buffer solution consisted 50 mM HEPES, 1 mM EDTA, 10 mM MgCl2, and 0.01% Brij-35, with pH of 7.4.
as §1
The enzyme, Ulight-4E-BP1 peptide, ATP, and the inhibitor were diluted using the kinase buffer solution.
The Eu-anti-phospho-tyrosine antibody was diluted to a concentration of 8 nM/L using the detection buffer solution.
The final concentration of DMSO was 4%, and the experiment was set up with duplicate wells. […] The reaction system was incubated at 25 °C for 60 minutes. After the reaction, 5 µL of the stop solution was added to each well, and further reacted at 25 °C for 5 minutes to terminate the reaction. Then 5 µL of Eu-anti-phospho-tyrosine antibody dilution was added to each well, and the mixture was incubated at 25 °C for 60 minutes.
The IC50 value was obtained by fitting the data to a four-parameter curve (using log(inhibitor) vs. response -- Variable slope model in GraphPad Prism).

OVCAR-3 cells = assay: In vitro OVCAR-3 cell viability assay (CellTiter-Glo); type: cell-based; conditions: Homo sapiens, OVCAR-3, 168 h, 7 days incubation
Protocol: (§3) 1640 medium, fetal bovine serum, and penicillin/streptomycin antibiotics were purchased from Wisent. CellTiter-Glo (cell viability chemiluminescence assay reagent) was purchased from Promega. The OVCAR-3 cell line was purchased from Nanjing Cobioer Biosciences Co., Ltd. Envision multimode plate reader (PerkinElmer) was used.
OVCAR-3 cells were seeded into a white 384-well plate, with 40 µL of cell suspension containing 300 OVCAR-3 cells per well. The cell plate was incubated overnight in a CO2 incubator.
(§4) The test compound was serially diluted 5-fold using a multichannel pipette to the 8th concentration, i.e., from 2000 µM to 0.00512 µM. The experiment was set up with duplicate wells. 78 µL of culture medium was added to an intermediate plate, and 2 µL per well of the gradient-diluted compound was transferred to the corresponding position in the intermediate plate. After mixing, 10 µL per well of the mixture was transferred to the cell plate. The concentration range of the compound transferred to the cell plate was from 10 µM to 0.026 nM. The cell plate was incubated in a CO2 incubator for 7 days. Another cell plate was prepared, and the signal value was read on the day of compound addition to serve as the maximum value (Max in the equation below) for data analysis. 10 µL per well of CellTiter-Glo reagent was added to the cell plate, and the cell plate was incubated at room temperature for 10 minutes to stabilize the luminescence signal. The signal was read using the multimode plate reader.
10 µL per well of CellTiter-Glo reagent was added to the cell plate, and the cell plate was incubated at room temperature for 10 minutes to stabilize the luminescence signal. The signal was read using the multimode plate reader.
as §2, with “using” for “according to”, “Prism). Table 1 provides the inhibitory activity of the compounds of the present application against OVCAR-3 cell proliferation.” for “Prism).”

T-47D cells = assay: In vitro T-47D cell viability assay (CellTiter-Glo); type: cell-based; conditions: Homo sapiens, T47D, 168 h, 7 days incubation
Protocol: as §3, with “T-47D” for “OVCAR-3”
T-47D cells were seeded into a white 384-well plate, with 40 µL of cell suspension containing 300 T-47D cells per well. The cell plate was incubated overnight in a CO2 incubator.
as §4, with “using the Envision multimode plate” for “using the multimode plate”
10 µL per well of CellTiter-Glo reagent was added to the cell plate, and the cell plate was incubated at room temperature for 10 minutes to stabilize the luminescence signal. The signal was read using the Envision multimode plate reader.
as §2, with “using” for “according to”, “Prism). Table 1 provides the inhibitory activity of the compounds of the present application against T-47D cell proliferation.” for “Prism).”

[1] = Pharmacokinetic study, oral and intravenous administration in mice; set-up: species or system ICR mice; conditions: mouse, in vivo, ICR male mice; for AUC(0-t): read-out: Area under plasma concentration-time curve AUC0-last
Protocol: This study used ICR male mice as test animals. The plasma concentrations of the test compounds and the reference compound in mice were quantitatively determined at different time points using the LC-MS/MS method following intravenous injection or oral administration to evaluate the pharmacokinetic characteristics of the test compounds in mice.
ICR mice (male, 20-30 g, 6-8 weeks old, Beijing Charles River).
A clear solution of the test compound was administered to ICR mice (fasted overnight or fed) via tail vein injection or oral gavage. For intravenous injection, blood samples (50 µL) were collected via cheek puncture at 0 h (pre-dose) and at 0.083, 0.25, 0.5, 1, 2, 4, 6, 8, and 24 h post-dose into anticoagulant tubes containing sodium heparin. The mixtures were thoroughly vortexed at 4 °C and centrifuged at 6000 rpm for 3 minutes. For oral gavage, blood samples were collected via cheek puncture at 0 h (pre-dose) and at 0.083, 0.25, 1, 2, 4, 6, 8, and 24 h post-dose into anticoagulant tubes containing sodium heparin. The mixtures were vortexed thoroughly, and centrifuged at 6000 rpm for 3 minutes. Plasma drug concentrations were determined using the LC-MS/MS method. Pharmacokinetic parameters were calculated using Phoenix WinNonlin 8.2.0 pharmacokinetic software with a non-compartmental model and linear-logarithmic trapezoidal rule.

[2] = CDK1/cyclin B1, 1 mM ATP, 60 min at 25 °C, Table 1, read-out: CDK1 IC50
[3] = exact values stated in the text below Table 1, read-out: IC50 against CDK1

T2 sequence (P06493 whole entry): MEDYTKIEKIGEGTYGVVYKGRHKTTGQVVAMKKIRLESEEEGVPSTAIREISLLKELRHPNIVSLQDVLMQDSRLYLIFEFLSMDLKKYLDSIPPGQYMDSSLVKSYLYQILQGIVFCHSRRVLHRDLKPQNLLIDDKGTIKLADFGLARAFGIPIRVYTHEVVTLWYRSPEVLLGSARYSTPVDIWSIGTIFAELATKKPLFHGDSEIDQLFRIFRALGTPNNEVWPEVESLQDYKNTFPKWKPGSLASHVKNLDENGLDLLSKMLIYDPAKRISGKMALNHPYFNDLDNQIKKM
T2 sequence (P14635 whole entry partner): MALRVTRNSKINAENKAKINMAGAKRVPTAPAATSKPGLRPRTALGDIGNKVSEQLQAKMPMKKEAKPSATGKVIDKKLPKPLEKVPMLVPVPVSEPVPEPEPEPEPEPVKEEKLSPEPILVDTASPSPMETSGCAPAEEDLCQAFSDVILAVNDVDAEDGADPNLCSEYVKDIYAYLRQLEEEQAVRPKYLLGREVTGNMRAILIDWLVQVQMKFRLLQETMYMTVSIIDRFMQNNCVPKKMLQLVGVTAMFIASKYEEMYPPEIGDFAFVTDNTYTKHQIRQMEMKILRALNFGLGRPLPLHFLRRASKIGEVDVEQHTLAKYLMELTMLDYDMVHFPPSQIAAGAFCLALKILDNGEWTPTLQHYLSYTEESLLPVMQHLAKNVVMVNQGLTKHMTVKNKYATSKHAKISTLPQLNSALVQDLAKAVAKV

Row | SMILES | IC50 (CDK2/cyclin E1) [nM] | IC50 (CDK1/cyclin B1; [2]) [nM] | IC50 (OVCAR-3 cells) [nM] | IC50 (T-47D cells) [nM] | IC50 (CDK1/cyclin B1; [3]) [nM] | Vd ([1]; intravenous administration, 5 mg/Kg, read-out: Apparent volume of distribution Vdss) [L/kg] | AUC(0-t) ([1]; intravenous administration, 5 mg/Kg) [ng·h/mL] | clearance ([1]; intravenous administration, 5 mg/Kg, read-out: Clearance CL) [mL/min/kg] | half-life ([1]; intravenous administration, 5 mg/Kg, read-out: Half-life T1/2 (converted)) [h] | bioavailability ([1]; oral 30 mg/Kg vs intravenous 5 mg/Kg, read-out: Bioavailability F) [%] | AUC(0-t) ([1]; oral administration, 30 mg/Kg) [ng·h/mL] | Cmax ([1]; oral administration, 30 mg/Kg, read-out: Peak concentration Cmax) [ng/mL] | Tmax ([1]; oral administration, 30 mg/Kg, read-out: Time to peak Tmax) [h]
1 | C=NOCc1nn2ccnc(Nc3cc([C@H]4CC[C@@H](OC(=O)NC(C)C)C4)[nH]n3)c2c1F [Compound 4] | 7.6 | > 1000 | 75 | 239 |  |  |  |  |  |  |  |  | 
2 | COCc1cc(C(=O)Nc2cc([C@H]3CC[C@@H](OC(=O)NC(C)C)C3)[nH]n2)n(C)n1 [PF-07104091, reference compound] |  | 521 | 172 | 377 |  | 11.8 | 1640 | 50.3 | 2.68 | 76.2 | 7520 | 6320 | 0.25

Now from value to compound, other results behind:

Row | IC50 (CDK2/cyclin E1) [nM] | IC50 (CDK1/cyclin B1; [2]) [nM] | IC50 (OVCAR-3 cells) [nM] | IC50 (T-47D cells) [nM] | IC50 (CDK1/cyclin B1; [3]) [nM] | SMILES | Vd ([1]; intravenous administration, 5 mg/Kg, read-out: Apparent volume of distribution Vdss) [L/kg] | AUC(0-t) ([1]; intravenous administration, 5 mg/Kg) [ng·h/mL] | clearance ([1]; intravenous administration, 5 mg/Kg, read-out: Clearance CL) [mL/min/kg] | half-life ([1]; intravenous administration, 5 mg/Kg, read-out: Half-life T1/2 (converted)) [h] | bioavailability ([1]; oral 30 mg/Kg vs intravenous 5 mg/Kg, read-out: Bioavailability F) [%] | AUC(0-t) ([1]; oral administration, 30 mg/Kg) [ng·h/mL] | Cmax ([1]; oral administration, 30 mg/Kg, read-out: Peak concentration Cmax) [ng/mL] | Tmax ([1]; oral administration, 30 mg/Kg, read-out: Time to peak Tmax) [h]
3 | 9.5 | > 1000 | 140 | 492 | > 10000 | CNOCc1nn2ccnc(Nc3cc([C@H]4CC[C@@H](OC(=O)NC(C)C)C4)[nH]n3)c2c1F [Hydrochloride salt of Compound 7] |  |  |  |  |  |  |  | 
4 | 4.2 | > 1000 | 187 | 383 | 1350 | CNOCc1nn2ccnc(Nc3cc([C@H]4CC[C@@H](OC(=O)NC(C)C)C4)[nH]n3)c2c1C [Hydrochloride salt of compound 3] |  |  |  |  |  |  |  | 
5 | 3.8 | > 1000 | 90 | 293 | 1910 | CONCc1nn2ccnc(Nc3cc([C@H]4CC[C@@H](OC(=O)NC(C)C)C4)[nH]n3)c2c1C [Formate salt of compound 1] |  |  |  |  |  |  |  | 
